IC50 data for 33 compounds are collected here from patent US9221756B2, “Pyrrole derivatives” (priority 2011, dated 2015).

The target of the assay is pneumolysin (Streptococcus pneumoniae serotype 2, UniProt Q04IN8). The assay can be described thus: Inhibition of the haemolytic activity of pneumolysin (sheep erythrocytes). The format is cell-based. To be noted: IC50, inhibition of pneumolysin-induced haemolysis of sheep erythrocytes.
pneumolysin, sequence (Q04IN8 whole entry): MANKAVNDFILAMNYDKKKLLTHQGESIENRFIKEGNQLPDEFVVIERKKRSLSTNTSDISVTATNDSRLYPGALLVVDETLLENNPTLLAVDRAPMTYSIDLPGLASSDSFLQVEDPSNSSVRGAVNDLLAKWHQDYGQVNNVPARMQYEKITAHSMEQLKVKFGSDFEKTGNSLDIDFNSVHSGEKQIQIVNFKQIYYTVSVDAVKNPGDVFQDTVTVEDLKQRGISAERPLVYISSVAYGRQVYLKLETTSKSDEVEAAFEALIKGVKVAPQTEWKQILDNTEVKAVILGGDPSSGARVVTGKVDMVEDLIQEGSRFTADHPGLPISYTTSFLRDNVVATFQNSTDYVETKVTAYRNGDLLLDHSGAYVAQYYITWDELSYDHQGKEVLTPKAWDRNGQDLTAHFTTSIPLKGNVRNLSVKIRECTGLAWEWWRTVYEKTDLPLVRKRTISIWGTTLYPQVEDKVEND

Compound `CCOC(=O)c1c(O)c(OCC(=O)OC(C)(C)C)c(C(=O)OCC)n1-c1ccc(OC)cc1` [UL2-030, diethyl 3-(2-(tert-butoxy)-2-oxoethoxy)-4-hydroxy-1-(4-methoxyphenyl)-1H-pyrrole-2,5-dicarboxylate] displayed an IC50 (class symbols of Table 1) of 10 to 20 µM.

On to `CCNC(=O)c1c(O)c(O)c(C(=O)NCC)n1-c1ccc(OCC)cc1` [UL1-078, 1-(4-ethoxyphenyl)-N2,N5-diethyl-3,4-dihydroxy-1H-pyrrole-2,5-dicarboxamide], for which the IC50 (class symbols of Table 1) was less than 10 µM.

Take `CCOC(=O)c1c(O)c(O)c(C(=O)OCC)n1-c1ccc(OCCOCCOCCOCCOC)cc1` [UL2-036, diethyl 1-(4-(2,5,8,11-tetraoxatridecan-13-yloxy)phenyl)-3,4-dihydroxy-1H-pyrrole-2,5-dicarboxylate]: the IC50 (class symbols of Table 1) is less than 10 µM.

For `CCOC(=O)c1c(O)c(O)c(-c2nn[nH]n2)n1-c1ccc(OC)cc1` [UL1-089, ethyl 3,4-dihydroxy-1-(4-methoxyphenyl)-5-(2H-tetrazol-5-yl)-1H-pyrrole-2-carboxylate], the IC50 runs as follows: (class symbols of Table 1) less than 10 µM; (specific values) 0.4 µM.

Where the note is “class symbols of Table 1”, `CN(C)C(=O)c1c(OCc2ccccc2)c(OCc2ccccc2)c(C#N)n1-c1ccc(F)cc1` [UL1-061, 3,4-bis(benzyloxy)-5-cyano-1-(4-fluorophenyl)-N,N-dimethyl-1H-pyrrole-2-carboxamide] yielded a 50% inhibitory concentration (IC50) of less than 10 µM.

As for `COCCOCCOCCOCCOCCOCCOCCOCC(C)(C)C(=O)Oc1c(OC(=O)C(C)(C)COCCOCCOCCOCCOCCOCCOCCOC)c(C(=O)N(C)C)n(-c2ccc(OC)cc2)c1C(=O)N(C)C` [UL1-120, 2,5-bis(dimethylcarbamoyl)-1-(4-methoxyphenyl)-1H-pyrrole-3,4-diyl bis(25,25-dimethyl-2,5,8,11,14,17,20,23-octaoxahexacosan-26-oate)], the IC50 (class symbols of Table 1) was in the range of 10 to 20 µM.

Where the note is “class symbols of Table 1”, `COc1ccc(-n2c(C(=O)N(C)C)c(OCc3ccccc3)c(OCc3ccccc3)c2C(=O)N2CCN(C)CC2)cc1` [UL1-056, 3,4-bis(benzyloxy)-1-(4-methoxyphenyl)-N,N-dimethyl-5-(4-methylpiperazine-1-carbonyl)-1H-pyrrole-2-carboxamide] yielded an IC50 of 10 to 20 µM.

Consider `CCOC(=O)c1c(O)c(O)c(C(=O)OCC)n1-c1ccc2c(c1)OCO2` [UL2-019, diethyl 1-(benzo[d][1,3]dioxol-5-yl)-3,4-dihydroxy-1H-pyrrole-2,5-dicarboxylate], for which the IC50 (class symbols of Table 1) fell in the range of 20 to 60 µM.

Consider `CCOC(=O)c1c(O)c(O)c(C(=O)N(C)C)n1-c1ccc(OCCOC)cc1` [UL1-093, ethyl 5-(dimethylcarbamoyl)-3,4-dihydroxy-1-(4-(2-methoxyethoxy)phenyl)-1H-pyrrole-2-carboxylate], for which, under “class symbols of Table 1”, the IC50 is less than 10 µM.

The compound `COc1ccc(-n2c(C(=O)N(C)C)c(OC(=O)[C@H]3CC[C@H](COP(=O)(O)O)CC3)c(OC(=O)[C@H]3CC[C@H](COP(=O)(O)O)CC3)c2C(=O)N(C)C)cc1` [UL1-126, (1R,1′R,4R,4′R)-2,5-bis(dimethylcarbamoyl)-1-(4-methoxyphenyl)-1H-pyrrole-3,4-diyl bis(4-((phosphonooxy)methyl)cyclohexanecarboxylate)] showed an IC50 (class symbols of Table 1) of less than 10 µM.

In turn, `CCOC(=O)c1c(O)c(O)c(C(=O)OCC)n1-c1ccc(OC)c(I)c1` [UL2-033, diethyl 3,4-dihydroxy-1-(3-iodo-4-methoxyphenyl)-1H-pyrrole-2,5-dicarboxylate] displayed an IC50 (class symbols of Table 1) of less than 10 µM.

On to `COc1ccc(-n2c(C(=O)OC(C)C)c(OC(=O)C(C)(C)COCCOCCOP(=O)(O)O)c(OC(=O)C(C)(C)COCCOCCOP(=O)(O)O)c2C(=O)N(C)C)cc1` [UL1-122, 2-(dimethylcarbamoyl)-5-(isopropoxycarbonyl)-1-(4-methoxyphenyl)-1H-pyrrole-3,4-diyl bis(2,2-dimethyl-3-(2-(2-(phosphonooxy)ethoxy)ethoxy)propanoate)], for which the IC50 (class symbols of Table 1) is less than 10 µM.

For the compound `CCOc1ccc(-n2c(C(=O)N3CCOCC3)c(O)c(O)c2C(=O)N2CCOCC2)cc1` [UL1-022, (1-(4-ethoxyphenyl)-3,4-dihydroxy-1H-pyrrole-2,5-diyl)bis(morpholinomethanone)], the 50% inhibitory concentration (IC50) (class symbols of Table 1) was less than 10 µM.

Where the note is “class symbols of Table 1”, `CCOC(=O)c1c(OCc2ccccc2)c(OCc2ccccc2)c(C(=O)N(C)C)n1-c1ccc(I)cc1` [UL1-062, ethyl 3,4-bis(benzyloxy)-5-(dimethylcarbamoyl)-1-(4-iodophenyl)-1H-pyrrole-2-carboxylate] returned a concentration for half-maximal inhibition (IC50) of less than 10 µM.

`CCOC(=O)c1c(O)c(O)c(C(=O)N(C)C)n1-c1ccc(OCCOCCOCCOCCOC)cc1` [UL1-096, ethyl 1-(4-(2,5,8,11-tetraoxatridecan-13-yloxy)phenyl)-5-(dimethylcarbamoyl)-3,4-dihydroxy-1H-pyrrole-2-carboxylate]: under “class symbols of Table 1”, the IC50 is less than 10 µM.

`CCNC(=O)c1c(OCc2ccccc2)c(OCc2ccccc2)c(C(=O)N(C)C)n1-c1ccc(OC)cc1` [UL1-055, 3,4-bis(benzyloxy)-N^2-ethyl-1-(4-methoxyphenyl)-N^5,N^5-dimethyl-1H-pyrrole-2,5-dicarboxamide] yielded an IC50 (class symbols of Table 1) of 10 to 20 µM.

In turn, `COc1ccc(-n2c(C(=O)N(C)C)c(O)c(O)c2C(=O)N(C)C)cc1` [UL1-005, 3,4-dihydroxy-1-(4-methoxyphenyl)-N^2,N^2,N^5,N^5-tetramethyl-1H-pyrrole-2,5-dicarboxamide] came in with an IC50 (class symbols of Table 1) of less than 10 µM and an IC50 (specific values) of 0.15 µM.

The compound `CCOC(=O)c1c(O)c(OCCO)c(C(=O)OCC)n1-c1ccc(F)cc1` [UL2-025, diethyl 1-(4-fluorophenyl)-3-hydroxy-4-(2-hydroxyethoxy)-1H-pyrrole-2,5-dicarboxylate] gave an IC50 (class symbols of Table 1) of 20 to 60 µM.

`CCOc1ccc(-n2c(C(=O)N(CC)CC)c(O)c(O)c2C(=O)N(CC)CC)cc1` [UL1-002, 1-(4-ethoxyphenyl)-N^2,N^2,N^5,N^5-tetraethyl-3,4-dihydroxy-1H-pyrrole-2,5-dicarboxamide] had an IC50 (class symbols of Table 1) of less than 10 µM.

`CCOC(=O)c1c(O)c(O)c(C(=O)OC(C)C)n1-c1ccc(OC)cc1` [UL2-021, 2-ethyl 5-isopropyl 3,4-dihydroxy-1-(4-methoxyphenyl)-1H-pyrrole-2,5-dicarboxylate] displayed an IC50 (class symbols of Table 1) of less than 10 µM.

`CCOC(=O)c1c(O)c(O)c(C(=O)OCC)n1-c1ccc(OC(F)(F)F)cc1` [UL2-005, diethyl 3,4-dihydroxy-1-(4-(trifluoromethoxy)phenyl)-1H-pyrrole-2,5-dicarboxylate]: the 50% inhibitory concentration (IC50) (class symbols of Table 1) was less than 10 µM.

As for `COc1ccc(-n2c(C(=O)OC3C(C)CCCC3C)c(O)c(O)c2C(=O)N(C)C)cc1` (centres unmarked) [UL1-113, 2,6-dimethylcyclohexyl 5-(dimethylcarbamoyl)-3,4-dihydroxy-1-(4-methoxyphenyl)-1H-pyrrole-2-carboxylate], the IC50 (class symbols of Table 1) is less than 10 µM.

As to `COc1ccc(-n2c(C(=O)N(C)C)c(OCc3ccccc3)c(OCc3ccccc3)c2C(=O)N2CCCCC2)cc1` [UL1-057, 3,4-bis(benzyloxy)-1-(4-methoxyphenyl)-N,N-dimethyl-5-(piperidine-1-carbonyl)-1H-pyrrole-2-carboxamide], under “class symbols of Table 1”, the IC50 was less than 10 µM.

`COc1ccc(-n2c(C(=O)N(C)C)c(O)c(O)c2C(=O)N2CCOCC2)cc1` [UL1-026, 3,4-dihydroxy-1-(4-methoxyphenyl)-N,N-dimethyl-5-(morpholine-4-carbonyl)-1H-pyrrole-2-carboxamide] yielded an IC50 (class symbols of Table 1) of less than 10 µM.

As to `CCOC(=O)c1c(O)c(O)c(C(=O)N(C)C)n1-c1ccc(OCCCP(=O)(O)O)cc1` [UL1-107, (3-(4-(2-(dimethylcarbamoyl)-5-(ethoxycarbonyl)-3,4-dihydroxy-1H-pyrrol-1-yl)phenoxy)propyl)phosphonic acid], the IC50 (class symbols of Table 1) is less than 10 µM.

`CCOC(=O)c1c(O)c(OCC(=O)OC(C)(C)C)c(C(=O)OCC)n1-c1ccc(F)cc1` [UL2-027, diethyl 3-(2-(tert-butoxy)-2-oxoethoxy)-1-(4-fluorophenyl)-4-hydroxy-1H-pyrrole-2,5-dicarboxylate]: the IC50 (class symbols of Table 1) lay in the range of 10 to 20 µM.

Take `CCOC(=O)c1c(O)c(O)c(C(=O)N2CCOCC2)n1-c1ccc(OC)cc1` [UL1-040, ethyl 3,4-dihydroxy-1-(4-methoxyphenyl)-5-(morpholine-4-carbonyl)-1H-pyrrole-2-carboxylate]: under “class symbols of Table 1”, the IC50 was less than 10 µM.

As for `CCOC(=O)c1c(O)c(O)c(C(=O)OCC)n1-c1ccc(C(F)(F)F)cc1` [UL2-013, diethyl 3,4-dihydroxy-1-(4-(trifluoromethyl)phenyl)-1H-pyrrole-2,5-dicarboxylate], the IC50 (class symbols of Table 1) was less than 10 µM.

On to `COc1ccc(-n2c(C(=O)N3CCOCC3)c(O)c(O)c2C(=O)N2CCOCC2)cc1` [UL1-004, (3,4-dihydroxy-1-(4-methoxyphenyl)-1H-pyrrole-2,5-diyl)bis(morpholinomethanone)], for which the IC50 by setting is: (class symbols of Table 1) less than 10 µM; (specific values) 0.17 µM.

Compound `CCOC(=O)c1c(O)c(OCC(N)=O)c(C(=O)OCC)n1-c1ccc(F)cc1` [UL2-029, diethyl 3-(2-amino-2-oxoethoxy)-1-(4-fluorophenyl)-4-hydroxy-1H-pyrrole-2,5-dicarboxylate] had an IC50 (class symbols of Table 1) of 20 to 60 µM.

Consider `CN(C)C(=O)c1c(O)c(O)c(C(=O)N(C)C)n1-c1ccc(C(F)(F)F)cc1` [UL1-028, 3,4-dihydroxy-N^2,N^2,N^5,N^5-tetramethyl-1-(4-(trifluoromethyl)phenyl)-1H-pyrrole-2,5-dicarboxamide], for which the IC50 is less than 10 µM (class symbols of Table 1) and 0.068 µM (specific values).

On to `NC(=O)c1c(OCc2ccccc2)c(OCc2ccccc2)c(C(N)=O)n1-c1ccc(F)cc1` [UL1-075, 3,4-bis(benzyloxy)-1-(4-fluorophenyl)-1H-pyrrole-2,5-dicarboxamide], for which the IC50 (class symbols of Table 1) was in the range of 20 to 60 µM.

As to `CCNC(=O)c1c(O)c(O)c(C(=O)N(C)C)n1-c1ccc(OC)cc1` [UL1-024, N^2-ethyl-3,4-dihydroxy-1-(4-methoxyphenyl)-N^5,N^5-dimethyl-1H-pyrrole-2,5-dicarboxamide], the IC50 was less than 10 µM (class symbols of Table 1) and 0.182 µM (specific values).

The IC50 is the point on the concentration scale where inhibition reaches its midpoint. A higher IC50 goes with lower potency.
